Results reported in publication PMC6911004, “Fragment-based screening identifies molecules targeting the substrate-binding ankyrin repeat domains of tankyrase” (Scientific Reports, 2019).

Key:
Assay in all cases: WaterLOGSY NMR assay
Format in all cases: binding
TNKS2 ARC5 = molecular target: T1, TNKS2 ARC5 (Homo sapiens, UniProt Q9H2K2)
T1 construct: followed by TNKS2 ARC5 (1 μL, 100 μM stock); His6-GST; made in house; host or cells: E. coli
Excerpt: 39 hits from the DSF screen were suitable for follow-up by ligand-observed NMR methods. We re-purchased fragments and performed T2 relaxation-edited (CPMG-edited) and waterLOGSY experiments for each fragment with TNKS2 ARC5. We explored saturation transfer difference (STD) NMR, also using TNKS2 ARC5, but the assay was not sensitive enough to produce a reliable binding signal, likely due to the relatively small size of a single ARC protein (data not shown). High ligand concentrations were required to achieve sufficient signal, which in turn could lead to false-positive hits due to non-specific binding.
Using the relaxation-edited assay, we tested each fragment in three independent measurements (Fig. 2C), unless we obtained two negative results (non-binding) in the first two experiments. […] As a negative NOE for the compound-only sample could indicate aggregation, we flagged these compounds as potentially problematic. We identified 14 fragments that bound to TNKS2 ARC5 by both relaxation-edited and waterLOGSY methods (0.78% hit rate). […]
Fragments were dispensed in duplicate into a 384-well plate (250 nL, 100 mM stock in DMSO). […] Solutions were transferred to 1.7 mm NMR tubes using a Gilson liquid handling system. ^1H NMR spectra were recorded, with the DMSO signal dampened. […]

TNKS ARC1 (178–336) = molecular target: T2, TNKS ARC1 (178–336) (Homo sapiens, UniProt O95271)
T2 construct: TNKS ARC1 (178–336); His6-GST; made in house; host or cells: E. coli
T2 sequence (O95271 178-336): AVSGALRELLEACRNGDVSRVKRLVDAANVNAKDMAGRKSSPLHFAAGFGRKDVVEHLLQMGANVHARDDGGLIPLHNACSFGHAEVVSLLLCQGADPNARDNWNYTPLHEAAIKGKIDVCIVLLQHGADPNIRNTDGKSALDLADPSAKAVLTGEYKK
Experimental: (§1) Fragments were dispensed in duplicate into a 384-well plate (250 nL, 100 mM stock in DMSO). Wells were backfilled with DMSO (2.25 μL). Tankyrase ARC protein (47.5 μL in 25 mM HEPES-NaOH pH7.5, 100 mM NaCl, 2 mM TCEP, 10% D2O; 20 μM final protein concentration in the assay) was added to the samples containing protein; buffer only (47.5 μL) was added to the compound-only samples. Solutions were transferred to 1.7 mm NMR tubes using a Gilson liquid handling system. ^1H NMR spectra were recorded, with the DMSO signal dampened. The bulk water signal at 4.7 ppm was selectively inverted. Data were processed using Bruker Topspin 3.14[66].

TNKS ARC2–3 (331–645) = molecular target: T3, TNKS ARC2–3 (331–645) (Homo sapiens, UniProt O95271)
T3 construct: TNKS ARC2–3 (331–645); His6-GST; made in house; host or cells: E. coli
T3 sequence (O95271 331-645): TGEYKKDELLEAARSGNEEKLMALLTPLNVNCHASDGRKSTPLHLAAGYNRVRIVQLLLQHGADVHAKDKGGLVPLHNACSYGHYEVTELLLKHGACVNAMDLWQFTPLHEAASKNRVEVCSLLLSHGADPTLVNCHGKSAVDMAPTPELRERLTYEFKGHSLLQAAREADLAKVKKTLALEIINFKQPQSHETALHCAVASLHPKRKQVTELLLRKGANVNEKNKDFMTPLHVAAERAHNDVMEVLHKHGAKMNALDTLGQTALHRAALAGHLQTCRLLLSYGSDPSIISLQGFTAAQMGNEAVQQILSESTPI
Experimental: as §1

TNKS ARC4 (646–807) = molecular target: T4, TNKS ARC4 (646–807) (Homo sapiens, UniProt O95271)
T4 construct: TNKS ARC4 (646–807); His6-GST; made in house; host or cells: E. coli
T4 sequence (O95271 646-807): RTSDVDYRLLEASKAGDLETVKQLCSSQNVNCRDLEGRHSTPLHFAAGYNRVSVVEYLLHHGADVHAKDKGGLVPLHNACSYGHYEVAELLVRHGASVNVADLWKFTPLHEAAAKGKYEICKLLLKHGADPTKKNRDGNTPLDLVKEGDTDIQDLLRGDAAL
Experimental: as §1

TNKS ARC5 (799–958) = molecular target: T5, TNKS ARC5 (799–958) (Homo sapiens, UniProt O95271)
T5 construct: TNKS ARC5 (799–958); His6-GST; made in house; host or cells: E. coli
T5 sequence (O95271 799-958): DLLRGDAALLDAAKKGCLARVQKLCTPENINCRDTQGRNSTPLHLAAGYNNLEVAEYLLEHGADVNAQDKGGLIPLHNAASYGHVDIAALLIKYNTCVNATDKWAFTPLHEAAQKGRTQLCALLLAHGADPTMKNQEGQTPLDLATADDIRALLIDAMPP
Experimental: as §1

TNKS2 ARC1 (20–178) = molecular target: T6, TNKS2 ARC1 (20–178) (Homo sapiens, UniProt Q9H2K2)
T6 construct: TNKS2 ARC1 (20–178); His6-GST; made in house; host or cells: E. coli
T6 sequence (Q9H2K2 20-178): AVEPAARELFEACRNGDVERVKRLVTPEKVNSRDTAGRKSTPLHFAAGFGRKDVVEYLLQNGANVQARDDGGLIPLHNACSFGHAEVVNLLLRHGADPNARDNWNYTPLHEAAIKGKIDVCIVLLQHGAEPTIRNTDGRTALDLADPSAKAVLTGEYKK
Experimental: as §1

TNKS2 ARC2–3 (173–487) = molecular target: T7, TNKS2 ARC2–3 (173–487) (Homo sapiens, UniProt Q9H2K2)
T7 construct: TNKS2 ARC2–3 (173–487); His6-GST; made in house; host or cells: E. coli
T7 sequence (Q9H2K2 173-487): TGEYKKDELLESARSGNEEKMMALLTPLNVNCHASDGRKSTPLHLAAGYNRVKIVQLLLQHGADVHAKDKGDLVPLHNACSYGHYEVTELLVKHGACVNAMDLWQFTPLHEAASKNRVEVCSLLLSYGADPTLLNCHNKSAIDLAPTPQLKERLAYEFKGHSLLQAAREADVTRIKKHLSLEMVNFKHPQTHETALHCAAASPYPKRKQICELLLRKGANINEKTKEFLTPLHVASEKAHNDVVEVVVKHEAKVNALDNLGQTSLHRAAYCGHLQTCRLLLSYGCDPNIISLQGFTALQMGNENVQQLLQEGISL
Experimental: as §1

T1 sequence (Q9H2K2 641-800): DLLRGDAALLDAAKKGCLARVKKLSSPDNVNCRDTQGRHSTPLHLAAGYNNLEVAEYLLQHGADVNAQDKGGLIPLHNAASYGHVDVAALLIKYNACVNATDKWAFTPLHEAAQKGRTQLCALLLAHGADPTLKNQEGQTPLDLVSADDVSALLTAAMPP

`O=C(NCc1ccco1)c1ccc2nccnc2c1` [compound 9] was tested. Which waterLOGSY (TNKS2 ARC5) did it give?
Its waterLOGSY is “negative NOE signal”.

What about the waterLOGSY (TNKS ARC1 (178–336)) of the same molecule?
The waterLOGSY was “negative NOE signal”.

And the waterLOGSY (TNKS ARC2–3 (331–645))?
The waterLOGSY was “negative NOE signal”.

And the waterLOGSY (TNKS ARC4 (646–807))?
Its waterLOGSY is “negative NOE signal”.

What about the waterLOGSY (TNKS ARC5 (799–958)) of the same molecule?
The waterLOGSY was “negative NOE signal”.

What about the waterLOGSY (TNKS2 ARC1 (20–178)) of the same molecule?
The waterLOGSY was “no NOE”.

And the waterLOGSY (TNKS2 ARC2–3 (173–487))?
Its waterLOGSY is “negative NOE signal”.
